Laboratory results: the supplement of paper PMC10307832

Legend:
Assay in all cases: relative viability (nuclei count vs DMSO), 5 days (fraction); higher = more cells survive
[1] = compound: CCOC(=O)CCNc1cc(N2CCc3ccccc3CC2)nc(-c2ccccn2)n1 [GSK-J4] + CC(=O)c1c(C)c2cnc(Nc3ccc(N4CCNCC4)cn3)nc2n(C2CCCC2)c1=O [Palbociclib] (partner 0.5 µM)
Procedure, shortened: (§1)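 Lung cancer cell lines were seeded in 1536-well plates and dosed by pin tool the next day, with either a single drug or a fixed anchor-drug dose combined with five library-drug doses (not always all listed) spaced in √10 steps. Five days later, one step fixed the cells and stained their nuclei (final 0.05% Triton X-100, 1% formaldehyde, 1 ug/ml Hoechst), and nuclei were counted on 4× images. Relative viability is the nuclei count in treated wells divided by the count in vehicle wells, and each value is the median of duplicate plates.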

[2] = compound: CCOC(=O)CCNc1cc(N2CCc3ccccc3CC2)nc(-c2ccccn2)n1 [GSK-J4] + Cc1nc(Nc2ncc(C(=O)Nc3c(C)cccc3Cl)s2)cc(N2CCN(CCO)CC2)n1 [Dasatinib] (partner 0.075 µM)
Procedure, shortened: as §1

[3] = compound: CCOC(=O)CCNc1cc(N2CCc3ccccc3CC2)nc(-c2ccccn2)n1 [GSK-J4] + Nc1ncn([C@H]2C[C@H](O)[C@@H](CO)O2)c(=O)n1 [Decitabine] (partner 2 µM)
Procedure, shortened: as §1

[4] = compound: CN1CCC(CC1)OC2=CC(=C(C=C2)NC3=NC=C4C(=N3)N(C(=O)N4C)C5CCCC5)OC [AZ3146] + Cc1nc(NC(=O)N2CCC[C@H]2C(N)=O)sc1-c1ccnc(C(C)(C)C(F)(F)F)c1 [Alpelisib] (partner 2 µM)
Procedure, shortened: as §1

Question: Which results are given for UMC-11?
Answer: relative viability ([1]; first compound 0.5 µM): 0.367; relative viability ([1]; first compound 1.581 µM): 0.288; relative viability ([1]; first compound 15.81 µM): 0.35; relative viability ([1]; first compound 50 µM): 0.241; relative viability ([2]; first compound 0.5 µM): 0.43; relative viability ([2]; first compound 5 µM): 0.43; relative viability ([2]; first compound 15.81 µM): 0.392; relative viability ([2]; first compound 50 µM): 0.231; relative viability ([3]; first compound 0.5 µM): 0.93; relative viability ([3]; first compound 1.581 µM): 0.642; relative viability ([3]; first compound 15.81 µM): 0.582; relative viability ([3]; first compound 50 µM): 0.343; relative viability ([4]; first compound 0.08 µM): 1.08; relative viability ([4]; first compound 0.253 µM): 0.98; relative viability ([4]; first compound 0.8 µM): 1.11; relative viability ([4]; first compound 2.53 µM): 0.861; relative viability ([4]; first compound 8 µM): 0.296
